Key:
[1] = target: T1, hFASN enzyme (full length) (Homo sapiens, UniProt P49327); test: Fatty Acid Synthase (FASN) inhibition scintillation proximity assay; format: biochemical; settings: for inhibition at 10 µM: read-out: Human FASN % inhibition @ 10 μM, 10 μM test compound; for IC50: read-out: Human FASN pIC50 (converted)
T1 construct: 10 μL hFASN enzyme (full length, 300 ng, purified in house); made in house
Procedure, shortened: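 Compounds at 0.01–30 μM were mixed with 300 ng purified full-length enzyme in 100 mM KH2PO4 pH 7.5, 1 mM DTT. Substrates ³H-acetyl-CoA and malonyl-CoA were then converted, and bead addition stopped the reaction. Signal was normalised to low and high plate controls and fitted by 4-parameter nonlinear regression.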

[2] = test system: PC-3M-Luc-C6 prostate cells; test: In vitro PC-3M-Luc-C6 prostate cell proliferation assay in lipid reduced medium; format: cell-based; settings: 96 h, read-out: pIC50 PC-3M-Luc-C6 prostate cell (converted)
[3] = target: Fatty Acid Synthase Keto-reductase Domain (FASN KR) (Homo sapiens, UniProt P49327); test: Fatty Acid Synthase keto-reductase domain (FASN KR) inhibition, NADPH oxidation at 340 nm
Procedure: After 20 minutes incubation at room temperature the plate was measured again (T2).
The decrease in absorbance was calculated as (Absorbance before incubation T1)−(Absorbance following incubation T2).
A plot of Controlmin versus test compound concentration was fitted to a 4-parameter logistic curve using a non-linear least squares regression method.

A2780 ovarian cells [4] = test: A2780 ovarian cell proliferation assay in lipid reduced medium, with palmitate (MTT); format: cell-based; settings: Homo sapiens, A2780, 96 h; read-out: pIC50 A2780 Ovarian Cell, With Palmitate (converted)
Procedure, shortened: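 Seeded cells were switched next day to lipid-reduced serum, exposed to compound and 25 μM palmitate complexed with fatty-acid-free BSA, and incubated 96 h. Proliferation was then determined by MTT absorbance at 544 nm, with a best-fit curve of signal against concentration.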

A2780 ovarian cells [5] = test: A2780 ovarian cell proliferation assay in lipid reduced medium, without palmitate (MTT); format: cell-based; settings: Homo sapiens, A2780, 96 h; read-out: pIC50 A2780 Ovarian Cell, Without Palmitate (converted)
[6] = test system: LNCaP-Vancouver prostate cells; test: In vitro LNCaP Vancouver prostate cell proliferation assay in lipid reduced medium; format: cell-based; settings: read-out: pIC50 LNCaP_Vancouver prostate cell (converted)

T1 sequence (P49327 whole entry): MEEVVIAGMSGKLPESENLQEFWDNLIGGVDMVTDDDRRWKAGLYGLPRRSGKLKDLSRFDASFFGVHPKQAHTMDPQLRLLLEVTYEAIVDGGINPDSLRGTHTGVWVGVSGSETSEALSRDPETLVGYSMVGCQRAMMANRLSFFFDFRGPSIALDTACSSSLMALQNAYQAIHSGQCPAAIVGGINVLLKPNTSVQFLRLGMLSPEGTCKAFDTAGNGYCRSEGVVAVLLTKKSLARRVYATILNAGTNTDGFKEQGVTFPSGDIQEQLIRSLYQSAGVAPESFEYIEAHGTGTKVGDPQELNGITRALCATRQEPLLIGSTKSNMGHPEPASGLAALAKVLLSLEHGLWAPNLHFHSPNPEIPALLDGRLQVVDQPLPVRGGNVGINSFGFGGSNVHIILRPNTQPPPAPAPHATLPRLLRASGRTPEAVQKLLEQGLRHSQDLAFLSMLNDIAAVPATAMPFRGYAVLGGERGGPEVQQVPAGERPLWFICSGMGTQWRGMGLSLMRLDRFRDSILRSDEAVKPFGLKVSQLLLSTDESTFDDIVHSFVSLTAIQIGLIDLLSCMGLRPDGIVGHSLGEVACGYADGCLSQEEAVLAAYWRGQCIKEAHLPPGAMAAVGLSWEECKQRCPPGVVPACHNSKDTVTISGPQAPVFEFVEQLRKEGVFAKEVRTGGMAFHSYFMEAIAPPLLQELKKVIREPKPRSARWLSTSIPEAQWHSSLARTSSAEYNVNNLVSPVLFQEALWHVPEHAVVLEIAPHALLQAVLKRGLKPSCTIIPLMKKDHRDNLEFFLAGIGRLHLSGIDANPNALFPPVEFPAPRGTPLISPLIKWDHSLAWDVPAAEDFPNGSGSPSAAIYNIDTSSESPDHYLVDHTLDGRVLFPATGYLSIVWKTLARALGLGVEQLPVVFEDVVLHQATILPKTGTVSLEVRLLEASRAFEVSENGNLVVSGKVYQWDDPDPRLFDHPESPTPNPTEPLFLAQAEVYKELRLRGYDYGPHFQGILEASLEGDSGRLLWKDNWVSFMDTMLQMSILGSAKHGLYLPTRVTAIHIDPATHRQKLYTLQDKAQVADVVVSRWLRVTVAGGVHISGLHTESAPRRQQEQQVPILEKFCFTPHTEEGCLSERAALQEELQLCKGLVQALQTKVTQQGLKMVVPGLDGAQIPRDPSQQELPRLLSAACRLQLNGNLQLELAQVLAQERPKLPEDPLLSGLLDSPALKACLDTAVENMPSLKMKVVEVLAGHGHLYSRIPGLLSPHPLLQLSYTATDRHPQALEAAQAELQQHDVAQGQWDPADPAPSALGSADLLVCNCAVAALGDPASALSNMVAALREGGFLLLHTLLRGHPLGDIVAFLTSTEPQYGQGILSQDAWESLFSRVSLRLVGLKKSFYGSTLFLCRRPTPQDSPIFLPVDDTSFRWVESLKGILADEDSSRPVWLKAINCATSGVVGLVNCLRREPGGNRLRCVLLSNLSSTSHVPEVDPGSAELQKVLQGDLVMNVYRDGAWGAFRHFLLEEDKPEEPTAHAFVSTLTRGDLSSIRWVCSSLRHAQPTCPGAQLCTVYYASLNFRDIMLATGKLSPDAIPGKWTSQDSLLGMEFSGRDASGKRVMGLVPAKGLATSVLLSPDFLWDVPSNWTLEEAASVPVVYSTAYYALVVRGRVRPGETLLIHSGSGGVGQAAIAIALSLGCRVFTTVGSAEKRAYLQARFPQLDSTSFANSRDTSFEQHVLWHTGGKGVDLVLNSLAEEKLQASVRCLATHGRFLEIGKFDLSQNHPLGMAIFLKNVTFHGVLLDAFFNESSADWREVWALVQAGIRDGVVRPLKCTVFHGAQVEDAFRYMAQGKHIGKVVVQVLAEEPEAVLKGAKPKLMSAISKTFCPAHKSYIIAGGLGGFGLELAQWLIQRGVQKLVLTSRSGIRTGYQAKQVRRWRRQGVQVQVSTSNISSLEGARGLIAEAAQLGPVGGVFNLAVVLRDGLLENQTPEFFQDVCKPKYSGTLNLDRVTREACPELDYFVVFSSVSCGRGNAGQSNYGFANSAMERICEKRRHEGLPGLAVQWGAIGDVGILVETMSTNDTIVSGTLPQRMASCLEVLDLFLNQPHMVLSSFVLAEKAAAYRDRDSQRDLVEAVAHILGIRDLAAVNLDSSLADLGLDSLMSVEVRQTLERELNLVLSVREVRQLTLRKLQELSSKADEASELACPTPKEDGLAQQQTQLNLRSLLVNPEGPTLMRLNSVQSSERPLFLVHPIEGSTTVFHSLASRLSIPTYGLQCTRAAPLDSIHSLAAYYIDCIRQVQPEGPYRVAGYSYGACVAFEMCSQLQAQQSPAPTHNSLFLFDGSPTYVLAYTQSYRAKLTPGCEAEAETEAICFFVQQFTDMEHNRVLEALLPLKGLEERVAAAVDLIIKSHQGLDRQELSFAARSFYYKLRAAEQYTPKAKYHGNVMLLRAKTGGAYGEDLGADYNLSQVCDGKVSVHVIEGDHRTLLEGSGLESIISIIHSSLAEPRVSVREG
Chain of Fatty Acid Synthase Keto-reductase Domain (FASN KR) (P49327 whole entry, the tested form may be a part): as the sequence (P49327 whole entry) above

Row | inhibition at 10 µM [1] [%] | IC50 [1] [nM] | IC50 [2] [nM] | IC50 [3] [nM] | IC50 (A2780 ovarian cells [4]) [nM] | IC50 (A2780 ovarian cells [5]) [nM] | IC50 [6] [nM] | Structure (SMILES)
1 | 101 | 79.4 | 117 | 112 | > 10000 | 66.1 | 646 | Cn1ncc2cc(-c3ccc(C4=NC5(CCCC5)C(=O)N4C[C@@H]4CCN(C(=O)C5CC5)C4)c(F)c3)ccc21 [compound 880, (R)-3-((1-(cyclopropanecarbonyl)pyrrolidin-3-yl)methyl)-2-(2-fluoro-4-(1-methyl-1H-indazol-5-yl)phenyl)-1,3-diazaspiro[4.4]non-1-en-4-one]
2 | 100 | 288 | ~1820 | 741 | > 10000 | ~2140 | 3020 | Cc1cc(-c2ccc3c(c2)CCO3)ccc1C1=NC2(CCCC2)C(=O)N1C[C@@H]1CCN(C(=O)C2CC2)C1 [compound 884, (R)-3-((1-(cyclopropanecarbonyl)pyrrolidin-3-yl)methyl)-2-(4-(2,3-dihydrobenzofuran-5-yl)-2-methylphenyl)-1,3-diazaspiro[4.4]non-1-en-4-one]
3 | 98 | 309 | ~2630 | 490 | > 10000 | ~2240 | > 10000 | O=C(C1CC1)N1CC[C@@H](CN2C(=O)C3(CCCC3)N=C2c2ccc(-c3ccc4[nH]c(=O)[nH]c4c3)cc2F)C1 [compound 885, (R)-5-(4-(3-((1-(cyclopropanecarbonyl)pyrrolidin-3-yl)methuyl)-4-oxo-1,3-diazaspiro[4.4]non-1-en-2-yl)-3-fluorophenyl)-1H-benzo[d]imidazol-2(3H)-one]

— patent US10077261B2, “Imidazolin-5-one derivative useful as FASN inhibitors for the treatment of cancer” (Janssen Pharmaceutica NV, priority 2012, dated 2018)
